Laboratory results reported in the NIST ThermoML archive (doi:10.1016/j.fluid.2007.03.019).

Test: osmotic coefficient (dimensionless); mn = molality of the nth substance listed, in mol/kg
Conditions: 318.15 K, 101 kPa, Liquid

CCCCn1cc[n+](C)c1.[Br-] [1-butyl-3-methylimidazolium bromide] + O
vapor pressure osmometry
Conditions | osmotic coefficient
m1 = 0.022 | 0.944
m1 = 0.0461 | 0.926
m1 = 0.0726 | 0.894
m1 = 0.1241 | 0.855
m1 = 0.2702 | 0.809
m1 = 0.3522 | 0.785
m1 = 0.3994 | 0.777
m1 = 0.5204 | 0.755
m1 = 0.7354 | 0.726
m1 = 0.9713 | 0.713
m1 = 1.272 | 0.701
m1 = 2.024 | 0.69

CCCCn1cc[n+](C)c1.F[P-](F)(F)(F)(F)F [1-butyl-3-methylimidazolium hexafluorophosphate] + CC#N
osmometer
Conditions | osmotic coefficient
m1 = 0.0116 | 0.76
m1 = 0.019 | 0.636
m1 = 0.0321 | 0.477
m1 = 0.0366 | 0.436
m1 = 0.0544 | 0.323
m1 = 0.0691 | 0.278
m1 = 0.0918 | 0.287
m1 = 0.1015 | 0.314
m1 = 0.1285 | 0.415
m1 = 0.1496 | 0.515
m1 = 0.1789 | 0.692
m1 = 0.2032 | 0.857

CCCCn1cc[n+](C)c1.F[B-](F)(F)F [1-butyl-3-methylimidazolium tetrafluoroborate] + CC#N
osmometer
Conditions | osmotic coefficient
m1 = 0.0093 | 0.906
m1 = 0.0203 | 0.648
m1 = 0.0341 | 0.462
m1 = 0.0631 | 0.293
m1 = 0.0795 | 0.273
m1 = 0.1043 | 0.314
m1 = 0.1163 | 0.344
m1 = 0.1359 | 0.412
m1 = 0.1472 | 0.462
m1 = 0.1631 | 0.553
m1 = 0.1791 | 0.646
m1 = 0.2091 | 0.872

CCCCn1cc[n+](C)c1.F[B-](F)(F)F [1-butyl-3-methylimidazolium tetrafluoroborate] + O
vapor pressure osmometry
Conditions | osmotic coefficient
m1 = 0.0101 | 1.01
m1 = 0.0355 | 0.992
m1 = 0.044 | 0.927
m1 = 0.0701 | 0.887
m1 = 0.0971 | 0.864
m1 = 0.152 | 0.808
m1 = 0.1977 | 0.793
m1 = 0.2891 | 0.739
m1 = 0.3968 | 0.672
m1 = 0.4678 | 0.657
m1 = 0.5632 | 0.611
m1 = 0.799 | 0.532
m1 = 1.023 | 0.473
m1 = 1.468 | 0.372
m1 = 2.417 | 0.257
